The record followed here is PubChem BioAssay AID1996.

In brackets after ≈: the same amount, converted by molar mass. Bounds are passed on as bounds.

The conditions of the data set: buffer; pH 7.4; 200.0 µM.
As to `O=C(NCC(c1ccco1)N1CCOCC1)c1ccc(F)cc1` (centres undefined), the solubility (kinetic) (as a rule, solubility judged after dilution from a stock solution rather than from solid) is > 47.8 µg/mL.

With `COCCCNC(=S)Nc1ccc(OC(F)F)cc1C`, the solubility (kinetic) stood at 45.1 µg/mL (≈ 148 µM).

For `Cc1cccc2c(=O)cc(C)n(CC(N)=O)c12`, the kinetic solubility was > 34.5 µg/mL.

In the case of `O=c1oc(-c2ccco2)nc2sc3c(c12)CCCCC3`, the kinetic solubility was < 0.6 µg/mL.

Regarding `COc1ccc(OC)c(-n2c(C)cc(C=O)c2C)c1`, the kinetic solubility is > 38.9 µg/mL.

For `COc1ccccc1OCCCOc1cccc(/C=C2\SC(=O)NC2=O)c1`, the solubility (kinetic) is < 0.8 µg/mL.

On to `COc1cc(NC(=O)c2cccnc2SC)cc(OC)c1`, for which the kinetic solubility is > 45.7 µg/mL.

As for `COc1ccc2nc(C)c(C(N)=O)cc2c1`, the kinetic solubility was > 32.4 µg/mL.

Consider `O=C(CSc1nc(-c2ccccc2)cc(=O)[nH]1)Nc1ccccc1F`, for which the kinetic solubility is < 0.2 µg/mL.

In turn, `O=C(Nc1ncc([N+](=O)[O-])s1)c1cccs1` registered a solubility (kinetic) of 37.2 µg/mL (≈ 146 µM).

The compound `CN1/C(=C/C=C(C#N)C#N)C=Cc2ccccc21` returned a solubility (kinetic) of 1.1 µg/mL (≈ 4.72 µM).

For the compound `COc1ccc(CCNc2nc(C)cc(C)n2)cc1OC.Cl`, the solubility (kinetic) was > 48.6 µg/mL.

For the compound `CC1CC(C)(C)NC(=S)N1CCCC(=O)Nc1ccc(Cl)cc1` (centres undefined), the solubility (kinetic) is 36.7 µg/mL (≈ 104 µM).

Take `COc1cc(C2NC(=S)NC3=C2C(=O)CCC3)ccc1O` (centres undefined): the kinetic solubility was > 45.7 µg/mL.

As to `Nc1cccc(Nc2ccccc2)c1`, the kinetic solubility is > 27.6 µg/mL.

`COc1cccc(C(=O)OCC(=O)NCCCc2ccccc2)c1`: the solubility (kinetic) worked out at 12.1 µg/mL (≈ 37 µM).

Turning to `CN(C)C(=O)COc1ncnc2sc(-c3ccccc3)cc12`, the kinetic solubility was 13.9 µg/mL (≈ 44.4 µM).

Take `O=C(O)c1ccc(NCc2ccc(Br)cc2)cc1`: the kinetic solubility was > 45.9 µg/mL.

Take `CCOCCCNC(=O)c1c[nH]c2c(CC)cccc2c1=O`: the solubility (kinetic) was > 45.4 µg/mL.

For `S=C(NCc1ccccc1)NCc1ccco1`, the kinetic solubility turned out to be 28.2 µg/mL (≈ 114 µM).

Compound `COc1ccc(CNC(=O)C(C)OC(=O)c2cccs2)cc1` (centres undefined) registered a solubility (kinetic) of 26.9 µg/mL (≈ 84.2 µM).

`S=C(NCc1ccco1)NCC1CCCO1` (centres undefined) registered a solubility (kinetic) of 34.8 µg/mL (≈ 145 µM).

As for `O=C(O)/C=C/c1ccc2noc(-c3ccccc3)c2c1`, the solubility (kinetic) turned out to be 3.7 µg/mL (≈ 13.9 µM).

`CN(C)c1ccc(C(CN)c2c[nH]c3ccccc23)cc1` (centres undefined) came in with a kinetic solubility of 30.2 µg/mL (≈ 108 µM).

Consider `Cc1ccccc1NC(=O)CC(=O)c1ccccc1`, for which the solubility (kinetic) was > 38 µg/mL.

Turning to `Brc1cc(-c2ccccc2)nc(-c2ccccc2)n1`, the solubility (kinetic) is < 0.3 µg/mL.

Regarding `O=C(C[n+]1ccccc1)Nc1ccccc1[N+](=O)[O-].[Cl-]`, the kinetic solubility turned out to be 34 µg/mL.

Take `CC(C)c1ccccc1NC(=S)N(C)C`: the solubility (kinetic) is > 33.4 µg/mL.

Consider `O=C(Nc1ccccc1N1CCCC1)C1CCCO1` (centres undefined), for which the kinetic solubility is > 39.1 µg/mL.

In turn, `Cc1ncc(CN2CCCC(C(=O)c3sccc3C)C2)s1` (centres undefined) yielded a kinetic solubility of 37.4 µg/mL (≈ 117 µM).

`COc1ccc(NC(=O)c2cnc(SC)nc2)cc1` came in with a kinetic solubility of 8.4 µg/mL (≈ 30.5 µM).

Take `CCCCc1ccc(NC(=O)Cn2c(=O)c(N3CCCCC3)c(N)n(C)c2=O)cc1`: the kinetic solubility stood at 26.6 µg/mL (≈ 64.3 µM).

As to `O=C(Cc1cccs1)NCCCc1ccccc1`, the solubility (kinetic) was > 38.9 µg/mL.

For the compound `Cc1nnc(SCC(=O)Nc2ccc(OC(F)F)c(Cl)c2)n(N)c1=O`, the solubility (kinetic) is > 58.8 µg/mL.

Compound `Cc1ccc(C)c(NC(=O)C2CCCN(c3cnccn3)C2)c1` (centres undefined) returned a kinetic solubility of 1.7 µg/mL (≈ 5.48 µM).

Regarding `Cc1ccc(CNC(=O)C(CC(C)C)OC(=O)c2ccco2)cc1` (centres undefined), the solubility (kinetic) turned out to be 11.2 µg/mL (≈ 34 µM).

For `O=C(NCC(c1cccs1)N1CCOCC1)c1cc2ccccc2oc1=O` (centres undefined), the kinetic solubility was found to be 10 µg/mL (≈ 26 µM).

As to `Cc1nnc(NC(=O)CS(=O)(=O)Cc2ccccc2)s1`, the kinetic solubility is > 46.7 µg/mL.

As to `Nc1ccc(-c2nc3cc(N)ccc3n2CCO)cc1`, the kinetic solubility was > 40.2 µg/mL.

Regarding `CC(C[N+](C)(C)C)OC(N)=O.[Cl-]` (centres undefined), the kinetic solubility is > 29.5 µg/mL.

Consider `Cc1ccc(F)cc1NS(=O)(=O)c1ccc(Cl)s1`, for which the solubility (kinetic) was > 45.9 µg/mL.

Compound `COc1nc(C)cc(C)c1S(=O)(=O)c1ccccc1C` gave a solubility (kinetic) of 4.8 µg/mL (≈ 16.5 µM).

For the compound `COc1ccc(NC(=S)NCc2ccc3c(c2)OCO3)cc1`, the solubility (kinetic) was > 47.5 µg/mL.

As for `O=[N+]([O-])c1ccc(Cl)cc1N1CCCCC1`, the solubility (kinetic) was < 0.3 µg/mL.

Compound `COc1ccc2c(c1)[nH]c1c(N3CCSCC3)ncnc12` returned a kinetic solubility of 11.5 µg/mL (≈ 38.3 µM).

Turning to `COc1cc(F)ccc1S(=O)(=O)NCc1cccnc1`, the kinetic solubility was > 44.4 µg/mL.

For `CC1C(=O)N2CCCc3cc(S(=O)(=O)N4CCCCC4)cc1c32` (centres undefined), the kinetic solubility was > 50.2 µg/mL.

Regarding `O=c1[nH]c2c(c(=O)[nH]1)CCC2`, the kinetic solubility was > 22.8 µg/mL.

As for `N#C/C(=C\c1ccccc1[N+](=O)[O-])C(=O)NCc1ccccc1`, the kinetic solubility was > 46.1 µg/mL.

The compound `COc1ccc(NC(=O)CCC(=O)c2cc(C)sc2C)cc1` returned a solubility (kinetic) of 6.3 µg/mL (≈ 19.8 µM).

Compound `CCn1c(SCc2cccc(OC)c2)nc2ccccc2c1=O` returned a kinetic solubility of 0.8 µg/mL (≈ 2.45 µM).

For the compound `Cc1ccc(C(C)C)c(OCC(=O)NC2CCN(C)CC2)c1`, the kinetic solubility is > 45.7 µg/mL.

For `CCO/C(C)=C1/SC(=S)NC1=O`, the solubility (kinetic) is > 30.5 µg/mL.

In turn, `COc1cc(NC(=O)Cc2ccccc2)c(C(=O)O)cc1OC` displayed a kinetic solubility of 43.5 µg/mL (≈ 138 µM).
